Patent publication US20030139373A1, “Method for cancer therapy” (priority 2001, published 2003)

Legend:
[1] = A549 NSCLC xenograft model, toxicity (body weight, deaths); conditions: single agent
Text: Female BALB/c nu/nu mice were obtained from Charles River Laboratories (Wilmington, Mass.). The mice were housed in an AALAC approved facility and received standard care in accordance with institutional policy (fully compliant with both NIH and Roche Animal Care and Use Committee guidelines).
Compound II was microprecipitated with an ionic polymer, Eudragit L-100-55, using a solvent extraction method. Eudragit L100-55 (described in USP/NF as “Methacrylic Acid Copolymer”) is an anionic copolymer based on methacrylic acid and ethyl acrylate. The ratio of drug to polymer in the final formulation was 50% w/w Compound II and 50% w/w Eudragit L100-55. For oral administration, the formulated Compound II or pure Eudragit L100-55 (administered to vehicle control groups) was suspended in 0.2% CMC (carboxy-methyl cellulose) solution (Aqualon Hercules, Inc., Parlin, N.J.). The CMC solution was added immediately prior to dosing to animals. Gemzar® (Lilly, Indianapolis, Ind.) was applied to a 40 micron high performance Whatman C-18 column. The column was eluted at 60 ml/min for 50 minutes with water, followed by elution with 40% CH3CN/water until UV clear. The solution was then evaporated and lyophilized.
Weight loss was graphically represented as percent change in mean group body weight, using the formula: […]
where ‘W’ represents mean body weight of the treated group at a particular day, and ‘W0’ represents mean body weight of the same treated group at initiation of treatment.

A549 NSCLC Xenograft = test: A549 NSCLC xenograft model, efficacy (tumor growth inhibition); type: in vivo, mice; conditions: single agent
Text: For implantation in mice, A549 cells were dislodged with trypsin-EDTA, washed with 1×D-PBS, and resuspended in serum-free media. […] Tumors were allowed to establish until they were palpable and of an appropriate tumor volume (based on previous tumorigenicity studies) before initiation of treatment. Animals were randomly assigned to groups according to initial tumor volume, and the day of tumor cell inoculation was considered to be study day 0. […] The solution was then evaporated and lyophilized. […] Efficacy data was graphically represented as the mean tumor volume ±standard error of the mean (SEM). Tumor volumes of treated groups were presented as percentages of tumor volumes of the control groups (%T/C), using the formula: 100×((T-T0)/(C-C0)), where 'T' represented mean tumor volume of a treated group on a specific day during the experiment, 'T0' represented mean tumor volume of the same treated group on the first day of treatment; 'C' represented mean tumor volume of a control group on a specific day during the experiment, and C0' represented mean tumor volume of the same […] 'D' represents the large diameter of the tumor, and 'd' represents the small diameter. In some cases, tumor regression and/or percent change in tumor volume was calculated using the formula: Statistical analysis was determined by the rank sum test (SigmaStat, v.2.0, Jandel Scientific, San Francisco, Calif.).

H1299 cells = test: Tetrazolium dye (MTT) proliferation assay, H1299; type: cell-based; conditions: Homo sapiens, NCI-H1299; MTT assay using H1299 cells
Procedure: H1299 cells were obtained from the National Cancer Institute. A549 cells were purchased from ATCC. The cells were grown in a subconfluent condition to maintain a logarithmic growth phase. The cells were dislodged for passage using trypsin-EDTA (0.05% and 0.53 mM, respectively).
Cellular proliferation was evaluated by the tetrazolium dye assay. Cells from exponentially growing cultures were plated at the appropriate seeding density in the optimal medium to give logarithmic growth over the course of the assay. Plates were incubated overnight at 37° C. in a humidified CO2 atmosphere to allow for recovery from trypsinization before beginning the assay. […] The plates were returned to 37° C. and assayed for proliferation by MTT (3-(4,5-dimethyl-thiazole-2-yl)-2,5-diphenyl-2H-tetrazolium bromide at time points that would allow for at least three population doublings in the untreated control cultures. MTT was added to each well to yield a final concentration of 1 mg/ml and the plates were returned to 37° C. for 2.5 hours. Following incubation, the MTT-containing medium was removed by aspiration and the resulting formazan metabolite was solubilized in 50 μl ethanol. Absorbances were read at a wavelength of 570 nm with a 650 nm reference. Percent inhibition was calculated using the formula: [formula]

SMILES: Nc1ccn([C@@H]2O[C@H](CO)[C@@H](O)C2(F)F)c(=O)n1 [Gemcitabine, gemcitabine]
- Drug Related Deaths ([1]; G 30 mg/kg IP): 0%
- Drug Related Deaths ([1]; G 60 mg/kg IP): 0%
- Drug Related Deaths ([1]; G 120 mg/kg IP): 0%
- Tumor Volume (Mean ± SEM) (Day 30) (A549 NSCLC Xenograft; G 30 mg/kg IP): 97 ± 15 mm3
- % T/C (Day 47) (A549 NSCLC Xenograft; G 30 mg/kg IP): 72%
- Tumor Volume (Mean ± SEM) (Day 47) (A549 NSCLC Xenograft; G 30 mg/kg IP): 210 ± 44 mm3
- Tumor Volume (Mean ± SEM) (Day 30) (A549 NSCLC Xenograft; G 60 mg/kg IP): 111 ± 17 mm3
- % T/C (Day 47) (A549 NSCLC Xenograft; G 60 mg/kg IP): 49%
- Tumor Volume (Mean ± SEM) (Day 47) (A549 NSCLC Xenograft; G 60 mg/kg IP): 188 ± 27 mm3
- Tumor Volume (Mean ± SEM) (Day 30) (A549 NSCLC Xenograft; G 120 mg/kg IP): 98 ± 20 mm3
- % T/C (Day 47) (A549 NSCLC Xenograft; G 120 mg/kg IP): 61%
- Tumor Volume (Mean ± SEM) (Day 47) (A549 NSCLC Xenograft; G 120 mg/kg IP): 193 ± 36 mm3
- IC50 (H1299 cells): 3.8 nM
- IC90 (H1299 cells): 6 nM

SMILES: Cn1cc(C2=C(c3cn(C)c4cc([N+](=O)[O-])ccc34)C(=O)NC2=O)c2ccccc21 [Compound II]
- Drug Related Deaths ([1]; CII 50 mg/kg PO): 0%
- Drug Related Deaths ([1]; CII 100 mg/kg PO): 0%
- Drug Related Deaths ([1]; CII 200 mg/kg PO): 0%
- Tumor Volume (Mean ± SEM) (Day 30) (A549 NSCLC Xenograft; CII 50 mg/kg PO): 104 ± 18 mm3
- % T/C (Day 47) (A549 NSCLC Xenograft; CII 50 mg/kg PO): 50%
- Tumor Volume (Mean ± SEM) (Day 47) (A549 NSCLC Xenograft; CII 50 mg/kg PO): 217 ± 32 mm3
- Tumor Volume (Mean ± SEM) (Day 30) (A549 NSCLC Xenograft; CII 100 mg/kg PO): 148 ± 28 mm3
- % T/C (Day 47) (A549 NSCLC Xenograft; CII 100 mg/kg PO): 29%
- Tumor Volume (Mean ± SEM) (Day 47) (A549 NSCLC Xenograft; CII 100 mg/kg PO): 213 ± 35 mm3
- Tumor Volume (Mean ± SEM) (Day 30) (A549 NSCLC Xenograft; CII 200 mg/kg PO): 99 ± 17 mm3
- % T/C (Day 47) (A549 NSCLC Xenograft; CII 200 mg/kg PO): 18%
- Tumor Volume (Mean ± SEM) (Day 47) (A549 NSCLC Xenograft; CII 200 mg/kg PO): 141 ± 21 mm3
